17 compounds from patent US12448390B1, “Compound with α-glucosidase inhibitory activity and application thereof” (priority 2024, dated 2025) can be followed below.

The assay concerns the target a-glucosidase (Saccharomyces cerevisiae, UniProt P53341). Type of assay: biochemical. The following applies: 0.5 U/ml enzyme, 0.6 mM pNaGP, pH 6.8, 37° C.; for Inhibition rate %: compound at 250 μmol/L; for IC50: gradient 500 to 7.8125 μmol/L. How it is done:
An in vitro a-glucosidase activity assay was used for activity determination:
the compounds were weighed separately, and dissolved in dimethylsulfoxide (DMSO) to prepare 250 μmol/L of a reagent for a subsequent experiment. In short, a-glucosidase solution with a final concentration of 0.5 U/ml was reacted with 250 μmol/L of the compound and 0.6 mM of pNaGP solution in 0.1 mM, pH 6.8 phosphate buffer solution, to determine the inhibitory effect of the compound on an a-glucosidase conversion substrate. […] 250 μmol/L (10 μL) of the compound, enzyme solution (40 μL), and potassium phosphate buffer solution (100 μL) were pre-incubated in a 96-well plate at 37° C. for 10 min. Then, 50 μL of the substrate (pNaGP, 0.6 mM) was added to each micropore, it was incubated at 37° C. for 20 min, the absorbance was measured at 405 nm, and changes in enzyme activity were detected.
The formula for calculating the enzyme inhibitory activity of the compound tested was as follows:
The in vitro a-glucosidase activity assay was used for activity determination:
after the compounds were weighed separately, it was dissolved in DMSO to prepare 1 mmol/L of mother solution, and it was diluted in gradient to 500 μmol/L, 250 μmol/L, 125 μmol/L, 62.5 μmol/L, 31.25 μmol/L, 15.625 μmol/L and 7.8125 μmol/L. The different concentrations of the compounds (10 μL), 0.5 U/ml of enzyme solution (40 μL), and 0.1 mM, pH 6.8 phosphate buffer solution (100 μL) were pre-incubated in the 96-well plate at 37° C. for 10 min. Then, 50 μL of the substrate (pNaGP, 0.6 mM) was added to each micropore, it was incubated at 37° C. for 20 min, the absorbance was measured at 405 nm, and changes in enzyme activity were detected.

The structures appear in SMILES notation.

a-glucosidase, sequence (P53341 whole entry): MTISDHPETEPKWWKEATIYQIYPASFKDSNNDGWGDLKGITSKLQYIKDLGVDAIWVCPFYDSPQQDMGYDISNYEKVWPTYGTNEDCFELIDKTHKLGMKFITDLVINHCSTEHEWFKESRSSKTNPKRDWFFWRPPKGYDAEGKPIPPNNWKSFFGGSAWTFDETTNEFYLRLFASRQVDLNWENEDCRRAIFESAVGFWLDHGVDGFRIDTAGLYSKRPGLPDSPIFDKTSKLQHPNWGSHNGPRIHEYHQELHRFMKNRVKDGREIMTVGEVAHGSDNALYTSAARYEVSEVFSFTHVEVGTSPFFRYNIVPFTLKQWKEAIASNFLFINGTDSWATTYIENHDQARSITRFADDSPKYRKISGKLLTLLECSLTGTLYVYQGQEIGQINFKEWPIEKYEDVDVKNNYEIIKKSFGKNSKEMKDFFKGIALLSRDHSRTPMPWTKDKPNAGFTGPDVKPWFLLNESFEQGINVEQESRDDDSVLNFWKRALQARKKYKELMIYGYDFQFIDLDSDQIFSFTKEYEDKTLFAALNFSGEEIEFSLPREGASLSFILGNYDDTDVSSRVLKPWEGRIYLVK

In turn, `Cc1ncc(CO)c2cc(C(=O)Nc3ccc(F)c(Cl)c3)c(=Nc3ccc(Cl)cc3)oc12` [GFY-26] gave an Inhibition rate % of 62.651%. Turning to `Cc1ncc(CO)c2cc(C(=O)Nc3ccc(F)c(Cl)c3)c(=Nc3cc(O)cc(CO)c3)oc12` [GFY-17], the Inhibition rate % came out at 31.045%.

As to `Cc1ncc(CO)c2cc(C(=O)Nc3ccc(F)c(Cl)c3)c(=Nc3cc(Br)cc(Br)c3)oc12` [GFY-27], the Inhibition rate % was determined as 56.656%. For `Cc1ncc(CO)c2cc(C(=O)Nc3ccc(F)c(Cl)c3)c(=Nc3ccc(Br)c(Br)c3)oc12` [GFY-28], the Inhibition rate % worked out at 64.035%.

Compound `Cc1ncc(CO)c2cc(C(=O)Nc3ccc(F)cc3)c(=Nc3ccc(F)cc3)oc12` [GFY-20] displayed an Inhibition rate % of 95.56% and an IC50 of 20.1 µM. In turn, `Cc1ncc(CO)c2cc(C(=O)Nc3ccc(F)c(Cl)c3)c(=Nc3ccc(F)c(F)c3)oc12` [GFY-25] yielded an Inhibition rate % of 69.628%.

`Cc1ncc(CO)c2cc(C(=O)Nc3ccc(F)cc3)c(=Nc3cc(Br)cc(Br)c3)oc12` [GFY-29]: the Inhibition rate % is recorded as 94.686% and the IC50 is 27 µM. As to `Cc1ncc(CO)c2cc(C(=O)Nc3ccc(F)cc3)c(=Nc3ccc(F)c(F)c3)oc12` [GFY-22], the Inhibition rate % was 86.819% and the midpoint of inhibition, the IC50, lay at 37 µM. For `Cc1ncc(CO)c2cc(C(=O)Nc3ccc(F)cc3)c(=Nc3cc(F)cc(F)c3)oc12` [GFY-21] the same measures were 99.916% and 43.1 µM. Compound `COc1cccc(N=c2oc3c(C)ncc(CO)c3cc2C(=O)Nc2ccc(F)cc2)c1` [GFY-4] showed an Inhibition rate % of 30.769%. Turning to `Cc1ncc(CO)c2cc(C(=O)Nc3ccc(F)c(Cl)c3)c(=Nc3ccc(F)cc3)oc12` [GFY-23], the Inhibition rate % turned out to be 22.127%. On the same count and under the same terms, in the case of `Cc1ncc(CO)c2cc(C(=O)Nc3ccc(F)cc3)c(=Nc3cc(O)cc(CO)c3)oc12` [GFY-7] it was 45.254%; in that of `Cc1ncc(CO)c2cc(C(=O)Nc3ccc(F)cc3)c(=Nc3cccc(C(F)(F)F)c3)oc12` [GFY-1], 23.042%. `Cc1ncc(CO)c2cc(C(=O)Nc3ccc(F)c(Cl)c3)c(=Nc3cc(F)cc(F)c3)oc12` [GFY-24]: the Inhibition rate % was 99.833% and the half-maximal inhibitory concentration (IC50) was 16.6 µM. In turn, `Cc1ncc(CO)c2cc(C(=O)Nc3ccc(F)cc3)c(=Nc3ccc(C(F)(F)F)cc3)oc12` [GFY-2] returned an Inhibition rate % of 13.832%. Same read-out and setting: in the case of `Cc1ncc(CO)c2cc(C(=O)Nc3ccc(F)c(F)c3)c(=Nc3cc(O)cc(CO)c3)oc12` [GFY-13] it was 13.978%. The compound `Cc1ncc(CO)c2cc(C(=O)Nc3ccc(F)c(Cl)c3)c(=Nc3cccc(CO)c3)oc12` [GFY-16] gave an Inhibition rate % of 89.604% and an IC50 of 140 µM.

Broadly, the IC50 is the concentration that gives 50% inhibition. Lower therefore signals higher potency.
